Data on two compounds can be found in patent US4970162A, “Human-mouse hybrid cell line expressing monocyte-macrophage properties” (The United States of America as represented by the …, priority 1985, dated 1990).

One assay has as its system macrophage chemotaxis. The settings on record: cited from earlier work.
The next assay deals with RAW264 cells. The experiment in a line: chemotaxis of RAW264 cells. Format: cell-based. The settings on record: mouse RAW264 cells. As to the method:
(§1) Chemotaxis by the cell lines was measured in a 48-well microchemotaxis chamber (Neuro Probe, Inc., Cabin John, Md.) with a 10 μm thick Nuclepore polycarbonate membrane coated with polyvinylpyrrolidone and containing 5 μm pores as described by Aksamit, et al., J. Immunol 126:2194 (1981). Upper wells contained 50,000 cells in MEM with 10% heat-inactivated fetal calf serum, and lower wells contained attractant in RPMI-1640 (GIBCO, Grand Island, N.Y.). […] EAMS was prepared as described by Aksamit et al., supra. Cells in the chemotaxis chamber were allowed to migrate for 4 hrs at 37° C. in an atmosphere of 5% CO2 and 95% air. The top cells were wiped off the filter, and cells on the bottom were stained in Diff-Quik (Harleco, Gibbstown, N.J.). Chemotaxis was quantified by measurement of the optical density of the migrated cells.

A further assay deals with WBC264-9 cells. The experiment in a line: chemotaxis of WBC264-9 cells in 48-well microchemotaxis chamber. Format: cell-based, human-mouse hybrid. As to the method: as §1

Take pertussis toxin: in the assay with macrophage chemotaxis, the “inhibition of macrophage chemotaxis” value is listed as “potent inhibitor”.

For the compound `CSCC[C@H](NC=O)C(=O)N[C@@H](CC(C)C)C(=O)N[C@@H](Cc1ccccc1)C(=O)O` [FMLP, N-formylmethionine-leucine-phenylalanine], the “chemotaxis to FMLP” value is listed as “do not exhibit chemotaxis” with RAW264 cells and “high level of chemotaxis” in the assay on WBC264-9 cells (30 nM FMLP, cell line 9 (WBC264-9), for 20 passages, FIG. 1). In addition, the “concentration of optimal chemotactic response” value in the assay on WBC264-9 cells (WBC264-9 cells, 4 hrs at 37° C., FIG. 2) is “approximately 3×10^-8 M”.
